From PubChem BioAssay (NCI)
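In this assay, cells in 96-well plates receive the compound at five concentrations for 48 hours. Endpoints are linearly interpolated between the surrounding concentrations. At the TGI there is no net growth.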

Key:
Assay in all cases: NCI-60 cell line screen, 48 h
SNB-19 CNS = tested on: SNB-19 CNS
K-562 leukemia = tested on: K-562 leukemia
RPMI-8226 leukemia = tested on: RPMI-8226 leukemia
KM12 colon = tested on: KM12 colon
OVCAR-4 ovarian = tested on: OVCAR-4 ovarian
U251 CNS = tested on: U251 CNS
SK-MEL-5 melanoma = tested on: SK-MEL-5 melanoma
M14 melanoma = tested on: M14 melanoma
MDA-MB-435 = tested on: MDA-MB-435
NCI-H23 lung = tested on: NCI-H23 lung
UACC-62 melanoma = tested on: UACC-62 melanoma
OVCAR-5 ovarian = tested on: OVCAR-5 ovarian
MALME-3M melanoma = tested on: MALME-3M melanoma
A549 NSCLC = tested on: A549 NSCLC
HT29 colon = tested on: HT29 colon
SR leukemia = tested on: SR leukemia
OVCAR-8 ovarian = tested on: OVCAR-8 ovarian
A498 renal = tested on: A498 renal
SF-295 CNS = tested on: SF-295 CNS
HCT-15 colon = tested on: HCT-15 colon
COLO 205 colon = tested on: COLO 205 colon
HL-60(TB) leukemia = tested on: HL-60(TB) leukemia
SK-MEL-28 melanoma = tested on: SK-MEL-28 melanoma
IGROV1 ovarian = tested on: IGROV1 ovarian
PC-3 prostate = tested on: PC-3 prostate
TK-10 renal = tested on: TK-10 renal
HCT-116 colon = tested on: HCT-116 colon
MCF7 breast = tested on: MCF7 breast
UO-31 renal = tested on: UO-31 renal
BT-549 breast = tested on: BT-549 breast
HCC-2998 colon = tested on: HCC-2998 colon
ACHN renal = tested on: ACHN renal
MDA-MB-231 breast = tested on: MDA-MB-231 breast
LOX IMVI melanoma = tested on: LOX IMVI melanoma
NCI-H522 lung = tested on: NCI-H522 lung
RXF 393 renal = tested on: RXF 393 renal
EKVX NSCLC = tested on: EKVX NSCLC
SK-OV-3 ovarian = tested on: SK-OV-3 ovarian
CCRF-CEM leukemia = tested on: CCRF-CEM leukemia
NCI/ADR-RES ovarian = tested on: NCI/ADR-RES ovarian
MOLT-4 leukemia = tested on: MOLT-4 leukemia
UACC-257 melanoma = tested on: UACC-257 melanoma
OVCAR-3 ovarian = tested on: OVCAR-3 ovarian
SF-539 CNS = tested on: SF-539 CNS
SK-MEL-2 melanoma = tested on: SK-MEL-2 melanoma
786-0 renal = tested on: 786-0 renal
CAKI-1 renal = tested on: CAKI-1 renal
DU-145 prostate = tested on: DU-145 prostate
SW-620 colon = tested on: SW-620 colon
MDA-N = tested on: MDA-N
SN12C renal = tested on: SN12C renal
SF-268 CNS = tested on: SF-268 CNS
HOP-62 NSCLC = tested on: HOP-62 NSCLC
HS 578T breast = tested on: HS 578T breast
NCI-H460 lung = tested on: NCI-H460 lung
HOP-92 NSCLC = tested on: HOP-92 NSCLC
NCI-H226 lung = tested on: NCI-H226 lung

Compound: COC(=O)[C@H](NC(=O)OC(C)(C)C)[C@H]1COC(C)(C)O1
- TGI (SNB-19 CNS): > 100 µM
- TGI (K-562 leukemia): > 100 µM
- TGI (RPMI-8226 leukemia): > 100 µM
- TGI (KM12 colon): > 100 µM
- TGI (OVCAR-4 ovarian): > 100 µM
- TGI (U251 CNS): > 100 µM
- TGI (SK-MEL-5 melanoma): > 100 µM
- TGI (M14 melanoma): > 100 µM
- TGI (MDA-MB-435): > 100 µM
- TGI (NCI-H23 lung): > 100 µM
- TGI (UACC-62 melanoma): > 100 µM
- TGI (OVCAR-5 ovarian): > 100 µM
- TGI (MALME-3M melanoma): > 100 µM
- TGI (A549 NSCLC): > 100 µM
- TGI (HT29 colon): > 100 µM
- TGI (SR leukemia): > 100 µM
- TGI (OVCAR-8 ovarian): > 100 µM
- TGI (A498 renal): > 100 µM
- TGI (SF-295 CNS): > 100 µM
- TGI (HCT-15 colon): > 100 µM
- TGI (COLO 205 colon): > 100 µM
- TGI (HL-60(TB) leukemia): > 100 µM
- TGI (SK-MEL-28 melanoma): > 100 µM
- TGI (IGROV1 ovarian): > 100 µM
- TGI (PC-3 prostate): > 100 µM
- TGI (TK-10 renal): > 100 µM
- TGI (HCT-116 colon): > 100 µM
- TGI (MCF7 breast): > 100 µM
- TGI (UO-31 renal): > 100 µM
- TGI (BT-549 breast): > 100 µM
- TGI (HCC-2998 colon): > 100 µM
- TGI (ACHN renal): > 100 µM
- TGI (MDA-MB-231 breast): > 100 µM
- TGI (LOX IMVI melanoma): > 100 µM
- TGI (NCI-H522 lung): > 100 µM
- TGI (RXF 393 renal): > 100 µM
- TGI (EKVX NSCLC): > 100 µM
- TGI (SK-OV-3 ovarian): > 100 µM
- TGI (CCRF-CEM leukemia): > 100 µM
- TGI (NCI/ADR-RES ovarian): > 100 µM
- TGI (MOLT-4 leukemia): > 100 µM
- TGI (UACC-257 melanoma): > 100 µM
- TGI (OVCAR-3 ovarian): > 100 µM
- TGI (SF-539 CNS): > 100 µM
- TGI (SK-MEL-2 melanoma): > 100 µM
- TGI (786-0 renal): > 100 µM
- TGI (CAKI-1 renal): > 100 µM
- TGI (DU-145 prostate): > 100 µM
- TGI (SW-620 colon): > 100 µM
- TGI (MDA-N): > 100 µM
- TGI (SN12C renal): > 100 µM
- TGI (SF-268 CNS): > 100 µM
- TGI (HOP-62 NSCLC): > 100 µM

Compound: Cc1cc(C)c(S(=O)(=O)N2CCN(S(=O)(=O)c3c(C)cc(C)cc3C)OCCCCCO2)c(C)c1
- TGI (SNB-19 CNS): > 100 µM
- TGI (K-562 leukemia): > 100 µM
- TGI (HS 578T breast): > 100 µM
- TGI (KM12 colon): > 100 µM
- TGI (OVCAR-4 ovarian): > 100 µM
- TGI (U251 CNS): > 100 µM
- TGI (SK-MEL-5 melanoma): > 100 µM
- TGI (M14 melanoma): > 100 µM
- TGI (MDA-MB-435): > 100 µM
- TGI (NCI-H23 lung): > 100 µM
- TGI (UACC-62 melanoma): > 100 µM
- TGI (OVCAR-5 ovarian): > 100 µM
- TGI (MALME-3M melanoma): > 100 µM
- TGI (A549 NSCLC): > 100 µM
- TGI (HT29 colon): > 100 µM
- TGI (OVCAR-8 ovarian): > 100 µM
- TGI (A498 renal): > 100 µM
- TGI (SF-295 CNS): > 100 µM
- TGI (HCT-15 colon): > 100 µM
- TGI (COLO 205 colon): > 100 µM
- TGI (HL-60(TB) leukemia): > 100 µM
- TGI (SK-MEL-28 melanoma): > 100 µM
- TGI (NCI-H460 lung): > 100 µM
- TGI (IGROV1 ovarian): > 100 µM
- TGI (PC-3 prostate): > 100 µM
- TGI (TK-10 renal): > 100 µM
- TGI (HCT-116 colon): > 100 µM
- TGI (MCF7 breast): > 100 µM
- TGI (UO-31 renal): > 100 µM
- TGI (BT-549 breast): > 100 µM
- TGI (ACHN renal): > 100 µM
- TGI (LOX IMVI melanoma): > 100 µM
- TGI (NCI-H522 lung): > 100 µM
- TGI (EKVX NSCLC): > 100 µM
- TGI (SK-OV-3 ovarian): > 100 µM
- TGI (CCRF-CEM leukemia): > 100 µM
- TGI (NCI/ADR-RES ovarian): > 100 µM
- TGI (MOLT-4 leukemia): > 100 µM
- TGI (HOP-92 NSCLC): > 100 µM
- TGI (UACC-257 melanoma): > 100 µM
- TGI (OVCAR-3 ovarian): > 100 µM
- TGI (SK-MEL-2 melanoma): > 100 µM
- TGI (786-0 renal): > 100 µM
- TGI (CAKI-1 renal): > 100 µM
- TGI (DU-145 prostate): > 100 µM
- TGI (SW-620 colon): > 100 µM
- TGI (MDA-N): > 100 µM
- TGI (NCI-H226 lung): > 100 µM
- TGI (SN12C renal): > 100 µM
- TGI (SF-268 CNS): > 100 µM
- TGI (HOP-62 NSCLC): > 100 µM

Compound: CC(C)(C)OC(=O)C1C(=O)NC(=O)CC1CC(OCc1ccccc1)C(COCc1ccccc1)OCc1ccccc1 (centres undefined)
- TGI (SNB-19 CNS): > 100 µM
- TGI (K-562 leukemia): > 100 µM
- TGI (HS 578T breast): 66.6 µM
- TGI (RPMI-8226 leukemia): 15.8 µM
- TGI (OVCAR-4 ovarian): > 100 µM
- TGI (U251 CNS): 24.8 µM
- TGI (SK-MEL-5 melanoma): 27.5 µM
- TGI (M14 melanoma): > 100 µM
- TGI (MDA-MB-435): 20.7 µM
- TGI (NCI-H23 lung): 45.7 µM
- TGI (MALME-3M melanoma): 11.5 µM
- TGI (A549 NSCLC): > 100 µM
- TGI (HT29 colon): 14.3 µM
- TGI (SR leukemia): 25 µM
- TGI (OVCAR-8 ovarian): > 100 µM
- TGI (A498 renal): > 100 µM
- TGI (SF-295 CNS): > 100 µM
- TGI (HCT-15 colon): 39.1 µM
- TGI (HL-60(TB) leukemia): 4.34 µM
- TGI (SK-MEL-28 melanoma): > 100 µM
- TGI (NCI-H460 lung): > 100 µM
- TGI (IGROV1 ovarian): > 100 µM
- TGI (PC-3 prostate): 37.7 µM
- TGI (TK-10 renal): > 100 µM
- TGI (HCT-116 colon): > 100 µM
- TGI (UO-31 renal): 6.02 µM
- TGI (BT-549 breast): 32.8 µM
- TGI (HCC-2998 colon): 50.4 µM
- TGI (ACHN renal): 70.4 µM
- TGI (LOX IMVI melanoma): 25.5 µM
- TGI (RXF 393 renal): 8.95 µM
- TGI (EKVX NSCLC): > 100 µM
- TGI (CCRF-CEM leukemia): > 100 µM
- TGI (NCI/ADR-RES ovarian): 82.8 µM
- TGI (MOLT-4 leukemia): 13.1 µM
- TGI (HOP-92 NSCLC): 46.2 µM
- TGI (UACC-257 melanoma): 53.4 µM
- TGI (SF-539 CNS): 39.8 µM
- TGI (786-0 renal): > 100 µM
- TGI (DU-145 prostate): 80.6 µM
- TGI (SW-620 colon): > 100 µM
- TGI (MDA-N): 79.1 µM
- TGI (NCI-H226 lung): 93.3 µM
- TGI (SN12C renal): > 100 µM
- TGI (SF-268 CNS): > 100 µM
